Several values for one entry are separate records, joined by “and”; a condition that tells them apart may be missing. Equal entries are not always repeated. Where two headings read alike, the source gives them in different places.
How the values were obtained:
[1] = test system: cannabinoid receptor type 1 (CB1); settings: cited from earlier work
[2] = Stability of NTI164 oil formulation at room temperature (UPLC)
[3] = test system: TNF-alpha; assay: TNF-alpha level in microglial media, multiplex cytokine assay (Example 4); type: cell-based, human; settings: 2 μg/ml; interleukin and interferon activation
Description: (§1) Multiplex Cytokine/Chemokine Assay: Microglia media harvested following treatment initiation was centrifuged briefly to remove particulates (300 g for 10 min). Cytokine and chemokine levels in the microglial media were measured using a Bio-Plex 200 with a 96-well magnetic plate assay according to the manufacturer's instructions (Bio-Rad). Cytokines and chemokines measured included IL-1α, IL-1β, IL-2, IL-6, IL-10, IL-12 (p70), IL-13, G-CSF, GM-CSF, IFNγ, TNFα, CXCL1 (KC), CCL2 (MCP-1), and CCL5 (RANTES). All samples were run in duplicate and data were analyzed with the Bio-Plex Manager software.
(§2) The tubes are then placed in a sonication bath for 10 mins at 35-40 C. Upon completion of the sonication samples are then placed in a tray shaker (200 rpm) for 30 minutes at room temperature. Once completed the samples are then centrifuged at 4400 rpm for 5 minutes. The supernatant is collected for testing and development.
(§3) For the CBD sample, a pure standard (in powder form) was used. CBD 98% isolate was purchased as a reference standard from LGC Standards (London UK) (CAS No. 13956-29-1). The CBD standard reference was prepared at concentration of 1 mg/ml (in acetonitrile). CBD dilutions were made in acetonitrile as follows: 2 μg/ml; 6 μg/ml; and 0.1 μg/ml.

[4] = test system: neutrophil; settings: cited from earlier work
[5] = test system: excitotoxic cell injury paradigm; assay: Cell death in an excitotoxic cell injury paradigm; type: cell-based, human
Description: Neuronal viability was quantified using MTT [3-(4,5-dimethylthiazol-2-yl-)-2,5-diphenyl-2H-tetrazolium bromide; Sigma]. […] Cellular excitotoxicity was achieved via glutamate activation (3 mM).

[6] = test system: COX-2; assay: COX-2 expression, immunohistochemistry, human derived microglial cells (Example 4); type: cell-based; settings: 2 μg/ml, N = 9
Description: (§4) Immunohistochemistry (Protein Level) Assay: Cells were fixed for 10 min with 4% paraformaldehyde (PFA) in PBS. After 3×5 minutes washing with PBS, cells were incubated with primary antibodies (anti-COX2) 1:1000 overnight at 4 °C, and after 3×5 minutes washing in PBS, cells were then incubated in appropriate fluorescent secondary antibody 1:250 (Invitrogen) for 2 hours at room temperature. After a final wash, as previous, cells nuclei were sained with DAPI in the mounting media. Photomicrographs were taken of the cells in three fields of view per well from duplicate wells and analysed using Fiji for area coverage of each marker.
as §2, §3

[7] = animals; cited from earlier work
[8] = test system: IL-12; assay: IL-12 level in microglial media, multiplex cytokine assay (Example 4); type: cell-based, human; settings: 2 μg/ml; interleukin and interferon activation; control 99.91
Description: as §1, §2, §3

[9] = test system: cannabinoid receptor type 2 (CB2); settings: cited from earlier work
[10] = test system: COX-2; assay: COX-2 activity, immunohistochemistry, human derived microglial cells, diclofenac combination (Example 6); type: cell-based; design: unit not given here; settings: 2 μg/ml each, I&I inflammation activation, N = 9
Description: as §4, with “Human derived microglial cells” for “Immunohistochemistry (Protein Level) Assay: Cells”
COX-2 is measured using the immunohistochemistry assay—as described above. […] In the treatment groups, these cells are also treated with various treatments and COX-2 expression is then assessed following these treatments (1 hr after treatment).
In this example, ethanol extraction was used. […] The tubes are then placed in a sonication bath for 10 mins at 35-40 C. Upon completion of the sonication samples are then placed in a tray shaker (200 rpm) for 30 minutes at room temperature. Once completed the samples are then centrifuged at 4400 rpm for 5 minutes. The supernatant is collected for testing and development.
For the CBD sample, a pure standard (in powder form) was used. CBD 98% isolate was purchased as a reference standard from LGC Standards (London UK) (CAS No. 13956-29-1). […]

[11] = test system: human microglial cells; assay: DAPI cell viability stain (Example 4); type: cell-based
[12] = test system: IL-1a; assay: IL-1a release from BV2 microglia, celecoxib combination (Example 7); type: cell-based; settings: Celebrex 5 uM; NTI164 7.5 uM (as headed); combination Celebrex 5 uM + NTI164 7.5 ug/ml; activated control 154.83
Description: (§5) The immortalized microglia cell line, BV2, was purchased from the American Tissue Culture Collection. BV2 were cultured in RPMI media containing gentamycin and supplemented with 10% fetal bovine serum (FBS) for expansion and 5% FBS when plated for experiments. All cells were from between passage numbers 39 and 45. Cells were plated at […] and treated 24 hours after plating with phosphate buffered saline (PBS, as a control) or interleurkin-1B+interferon-γ (IL-1B+IFNγ, to induce inflammation).
(§6) Microglia media harvested following treatment initiation was centrifuged briefly to remove particulates (300 g for 10 min). Cytokine and chemokine levels in the microglial media were measured using a Bio-Plex 200 with a 96-well magnetic plate assay according to the manufacturer's instructions (Bio-Rad). Cytokines and chemokines measured included IL-1α, IL-1β, IL-2, IL-6, IL-10, IL-12 (p70), IL-13, G-CSF, GM-CSF, IFNγ, TNFα, CXCL1 (KC), CCL2 (MCP-1), and CCL5 (RANTES). All samples were run in duplicate that were averaged for analysis, at least three samples per group were run.

[13] = test system: IL-6; assay: IL-6 release from BV2 microglia, celecoxib combination (Example 7); type: cell-based; settings: Celebrex 5 uM; NTI164 7.5 uM (as headed); combination Celebrex 5 uM + NTI164 7.5 ug/ml; activated control 366.33
Description: as §5, §6

[14] = test system: TNF-a; assay: TNF-a release from BV2 microglia, celecoxib combination (Example 7); type: cell-based; settings: Celebrex 5 uM; NTI164 7.5 uM (as headed); combination Celebrex 5 uM + NTI164 7.5 ug/ml; activated control 45
Description: as §5, §6

[15] = test system: GM-CSF; assay: GM-CSF release from BV2 microglia, celecoxib combination (Example 7); type: cell-based; settings: Celebrex 5 uM; NTI164 7.5 uM (as headed); combination Celebrex 5 uM + NTI164 7.5 ug/ml; activated control 768.13
Description: as §5, §6

[16] = test system: IL-1a; assay: IL-1a, prednisone combination (Example 8); type: cell-based; settings: PDN 5 uM; NTI164 7.5 ug/ml; combination PDN 5 uM + NTI164 7.5 ug/ml; activated control 154.83
Description: (§7) Student's t-test was used for statistical analysis.

[17] = test system: GM-CSF; assay: GM-CSF, prednisone combination (Example 8); type: cell-based; settings: PDN 5 uM; NTI164 7.5 ug/ml; combination PDN 5 uM + NTI164 7.5 ug/ml; activated control 768.13
Description: as §7

[18] = test system: TNF-a; assay: TNF-a, prednisone combination (Example 8); type: cell-based; settings: PDN 5 uM; NTI164 7.5 ug/ml; combination PDN 5 uM + NTI164 7.5 ug/ml; activated control 45
Description: as §7

[19] = test system: IL-6; assay: IL-6, prednisone combination (Example 8); type: cell-based; settings: PDN 5 uM; NTI164 7.5 ug/ml; combination PDN 5 uM + NTI164 7.5 ug/ml; activated control 366.33
Description: as §7

[20] = in vitro, at low concentrations

In the case of `C=C(C)[C@@H]1CCC(C)=C[C@H]1c1c(O)cc(CCCCC)cc1O` [CBD, Cannabidiol], the “Allosteric modulation of CB1” value [1] is given as “negative allosteric modulator of CB1”, the “Affinity for CB1” value ([1]; compared to Δ9-THC) is given as “low affinity” and the CB1 antagonistic effect [1, 20] is given as “weak CB1 and CB2 antagonistic effect”. The “Allosteric modulation of CB1” value ([1]; listed as Cannabidiol) was “negative allosteric modulator of the cannabinoid CB1 receptor”, the “Cannabinoid content of NTI164, Day 14” value [2] was 0.56 mg/mL and the “Cannabinoid content of NTI164, Day 0” value ([2]; NTI164 oil, room temperature, Day 0) was 0.46 mg/mL. The “Cannabinoid content of NTI164, Day 2” value ([2]; NTI164 oil, room temperature, Day 2) was 0.56 mg/mL, the “Cannabinoid content of NTI164, Day 7” value ([2]; NTI164 oil, room temperature, Day 7) was 0.53 mg/mL and the “Cannabinoid content of NTI164, Day 28” value ([2]; NTI164 oil, room temperature, Day 28) was 0.54 mg/mL. The “Cannabinoid content of NTI164, Week 5” value ([2]; NTI164 oil, room temperature, Week 5) was 0.60 mg/mL, the “Cannabinoid content of NTI164, Week 6” value ([2]; NTI164 oil, room temperature, Week 6) was 0.51 mg/mL and the “Cannabinoid content of NTI164, Week 32” value ([2]; NTI164 oil, room temperature, Week 32) was 0.48 mg/mL. The “TNF-alpha, average +/- SD” value [3] was 71.13 +/− 12.81, the “Neutrophil chemotaxis and proliferation” value [4] was “inhibit neutrophil chemotaxis and proliferation” and the “Toxicity / effect on cell number and cell viability” value [5] was “toxic in this paradigm”. For the same compound, the “COX-2 expression, average +/- SEM, exposure after inflammatory insult” value ([6]; exposure 1 hour after inflammatory insult (interleukin and interferon gamma), control 104.26) was 76.32 +/− 7.95 (SEM), the “COX-2 expression, average +/- SEM, exposure before inflammatory insult” value ([6]; exposure 1 hour prior to inflammatory insult (interleukin and interferon gamma), control 94.47) was 84.82 +/− 7.65 (SEM) and the Oral bioavailability [7] was 13-19%. The “IL-12, average +/- SD” value [8] was 84.40 +/− 6.54, the “Affinity for CB2” value ([9]; compared to Δ9-THC) was “low affinity” and the CB2 antagonistic effect [9, 20] was “weak CB1 and CB2 antagonistic effect”. The “COX-2 activity, individual replicate” value ([10]; 1 hr after treatment) was 42.4 and 44.92 and 109.99 and 136.99 and 117.84 and 43.14 and 77.81 and 59.02 and 73.8, the “COX-2 activity, mean” value ([10]; activated control mean 101.39) was 78.43 and the “Cell death by DAPI cell viability stain” value [11] was “DAPI cell viability stain: No cell death was detected and assessed as per the DAPI cell staining method”.

`Cc1ccc(-c2cc(C(F)(F)F)nn2-c2ccc(S(N)(=O)=O)cc2)cc1` [Celebrex, celecoxib] showed an IL-1a [12] of 112.5, an IL-6 [13] of 128.50 and a TNF-a [14] of 30.17. The GM-CSF [15] was 511.97.

In the case of `C[C@]12C=CC(=O)C=C1CC[C@@H]1[C@@H]2C(=O)C[C@@]2(C)[C@H]1CC[C@]2(O)C(=O)CO` [PDN, Prednisone], the IL-1a [16] is reported as 144.5, the GM-CSF [17] is reported as 611.97 and the TNF-a [18] is reported as 30.17. The IL-6 [19] was 228.50.

Source: patent US20260335341A1, “METHODS FOR TREATING PAEDIATRIC NEUROLOGICAL DISORDERS” (Neurotech International Limited, priority 2022, published 2026)
